# Test results as given in the supplement of paper PMC11061612.
# Experiments:
# Assay in all cases: Bliss excess, mean over the matrix (fraction); higher = more synergy
# [1] = system: COR-L279 (Small Cell Lung Carcinoma)
# In short: (§1)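 After 24 hours at 37°C and 5% CO2 in 1536-well plates, cells in DMEM/F12 or RPMI plus 10% FBS received two-drug dose matrices for 72 hours. Viability came from CellTiter-Glo 2.0 luminescence and was scaled as inhibition, anchored at 0 by vehicle wells and at 1 by blank wells. Combination Emax is taken as the second-highest inhibition in the matrix, and Bliss excess as the observed combination effect less EA + EB − EA·EB, with EA and EB the single-agent effects.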
# [2] = system: KU812 (Chronic Myelogenous Leukemia)
# In short: as §1
# [3] = system: 8505C (Thyroid Gland Carcinoma)
# In short: as §1
# [4] = system: IM-95 (Gastric Carcinoma)
# In short: as §1
# [5] = system: NCI-H661 (Non-Small Cell Lung Carcinoma)
# In short: as §1
# NCI-H2731 (Mesothelioma) = system: NCI-H2731 (Mesothelioma)
# In short: as §1
# [6] = system: SUP-B15 (B-Lymphoblastic Leukemia)
# In short: as §1
# [7] = system: MN-60 (B-Lymphoblastic Leukemia)
# In short: as §1
# [8] = system: T-T (Esophageal Squamous Cell Carcinoma)
# In short: as §1
# [9] = system: RPMI-8226 (Plasma Cell Myeloma)
# In short: as §1
# [10] = system: SU-DHL-5 (B-Cell Non-Hodgkin's Lymphoma)
# In short: as §1
# [11] = system: NCI-H929 (Plasma Cell Myeloma)
# In short: as §1
# [12] = system: PC-3 (Prostate Carcinoma)
# In short: as §1
# [13] = system: KYSE-270 (Esophageal Squamous Cell Carcinoma)
# In short: as §1
# [14] = system: KY821 (Acute Myeloid Leukemia)
# In short: as §1
# G-361 (Melanoma) = system: G-361 (Melanoma)
# In short: as §1
# [15] = system: ESO51 (Esophageal Adenocarcinoma)
# In short: as §1
# [16] = system: MOG-G-CCM (Low Grade Glioma)
# In short: as §1
# [17] = system: NCI-H520 (Squamous Cell Lung Carcinoma)
# In short: as §1
# [18] = system: KP-3 (Pancreatic Carcinoma)
# In short: as §1
SMILES,Bliss excess [1],Bliss excess [2],Bliss excess [3],Bliss excess [4],Bliss excess [5],Bliss excess (NCI-H2731 (Mesothelioma)),Bliss excess [6],Bliss excess [7],Bliss excess [8],Bliss excess [9],Bliss excess [10],Bliss excess [11],Bliss excess [12],Bliss excess [13],Bliss excess [14],Bliss excess (G-361 (Melanoma)),Bliss excess [15],Bliss excess [16],Bliss excess [17],Bliss excess [18]
"COc1nnc2ccc(N3CCC(c4ccc(OCCN5CCN(C)C(=O)[C@H]5C)cc4)CC3)nn12 [AZD5153] + Cn1cnc2c(F)c(Nc3ccc(Br)cc3Cl)c(C(=O)NOCCO)cc21 [Selumetinib] (first compound max 1 µM, 7x7, partner max 10 µM)",-0.0778,0.0272,0.0049,0.0649,-0.0027,-0.0445,0.101,-0.0593,0.0702,0.0745,0.0756,-0.0068,-0.0598,0.0576,0.0027,-0.107,-0.0408,-0.0198,0.0319,-0.0122
"CCN(CCO)CCCOc1ccc2c(Nc3cc(CC(=O)Nc4cccc(F)c4)[nH]n3)ncnc2c1 [AZD2811] + O=C(c1cc(Cc2n[nH]c(=O)c3ccccc23)ccc1F)N1CCN(C(=O)C2CC2)CC1 [Olaparib] (first compound max 1 µM, 7x7, partner max 10 µM)",-0.0125,-0.0189,-0.0228,0.0087,-0.0062,0.0001,-0.0227,-0.0206,-0.0073,-0.0137,-0.0466,0.0305,-0.0231,0.0212,0.0512,-0.0295,-0.0379,-0.041,0.041,-0.0484
"CN(C)CCCOc1ccc(-c2ccc3ncc4c(c3c2)n(C2CCOCC2)c(=O)n4C)cn1 [AZD0156] + C[C@@H]1COCCN1C2=NC(=NC(=C2)C3(CC3)[S@](=N)(=O)C)C4=C5C=CNC5=NC=C4 [AZD6738] (first compound max 1 µM, 7x7, partner max 10 µM)",-0.0547,-0.0299,0.0051,-0.0126,0.0059,-0.0532,0.0247,-0.0041,-0.014,0.102,0.0265,-0.0182,-0.0168,0.0568,0.0228,0.032,-0.0449,-0.0593,-0.0064,-0.0325
"NC1(C(=O)N[C@@H](CCO)c2ccc(Cl)cc2)CCN(c2ncnc3[nH]ccc23)CC1 [Capivasertib] + COc1nnc2ccc(N3CCC(c4ccc(OCCN5CCN(C)C(=O)[C@H]5C)cc4)CC3)nn12 [AZD5153] (first compound max 10 µM, 7x7, partner max 1 µM)",0.0735,-0.05,0.0008,0.073,0.0687,-0.0012,0.0274,-0.042,-0.0365,0.0244,-0.0179,-0.008,-0.0242,0.124,-0.0351,0.0218,0.0603,0.0151,0.0497,0.0226
"COc1nnc2ccc(N3CCC(c4ccc(OCCN5CCN(C)C(=O)[C@H]5C)cc4)CC3)nn12 [AZD5153] + Cc1c2c(nn1C)CSCc1cc(n(C)n1)CSc1cc(c3ccccc3c1)OCCCc1c(C(=O)O)n(C)c3c-2c(Cl)ccc13 [AZD5991] (first compound max 1 µM, 7x7, partner max 1 µM)",0.08,-0.0007,-0.0393,-0.0477,0.031,-0.0327,0.0356,-0.0765,-0.0157,-0.0253,-0.0264,-0.0142,-0.054,0.0085,0.0104,0.0501,-0.0093,0.0248,-0.0174,-0.0446
"CC1(C)CCC(CN2CCN(c3ccc(C(=O)NS(=O)(=O)c4ccc(NCC5CCOCC5)c([N+](=O)[O-])c4)c(Oc4cnc5[nH]ccc5c4)c3)CC2)=C(c2ccc(Cl)cc2)C1 [Venetoclax] + CN(C)CCCOc1ccc(-c2ccc3ncc4c(c3c2)n(C2CCOCC2)c(=O)n4C)cn1 [AZD0156] (first compound max 1 µM, 7x7, partner max 1 µM)",0.0043,-0.0404,0.0155,-0.0016,0.0037,-0.029,-0.0392,-0.0045,0.0197,0.0405,0.0045,0.0294,-0.0363,0.0107,-0.0104,-0.0123,-0.014,-0.0198,-0.048,-0.042
"C=CCn1c(=O)c2cnc(Nc3ccc(N4CCN(C)CC4)cc3)nc2n1-c1cccc(C(C)(C)O)n1 [AZD1775] + C[C@@H]1COCCN1C2=NC(=NC(=C2)C3(CC3)[S@](=N)(=O)C)C4=C5C=CNC5=NC=C4 [AZD6738] (first compound max 1 µM, partner max 10 µM)",0.0131,0.0459,-0.0076,0.0804,0.0157,0.0444,0.0535,0.0165,0.0089,0.0407,0.0446,-0.0042,-0.0049,0.0567,0.0358,-0.0177,-0.0247,0.0195,-0.0133,-0.0075
"COc1nnc2ccc(N3CCC(c4ccc(OCCN5CCN(C)C(=O)[C@H]5C)cc4)CC3)nn12 [AZD5153] + CC1(C)CCC(CN2CCN(c3ccc(C(=O)NS(=O)(=O)c4ccc(NCC5CCOCC5)c([N+](=O)[O-])c4)c(Oc4cnc5[nH]ccc5c4)c3)CC2)=C(c2ccc(Cl)cc2)C1 [Venetoclax] (first compound max 1 µM, 7x7, partner max 1 µM)",-0.0945,-0.058,-0.07,-0.0663,-0.0574,-0.085,0.0051,-0.0708,-0.0319,-0.0035,-0.0107,0.0001,-0.109,-0.0185,-0.0376,-0.0649,-0.0346,-0.0471,-0.0179,-0.0399
"CC1(C)CCC(CN2CCN(c3ccc(C(=O)NS(=O)(=O)c4ccc(NCC5CCOCC5)c([N+](=O)[O-])c4)c(Oc4cnc5[nH]ccc5c4)c3)CC2)=C(c2ccc(Cl)cc2)C1 [Venetoclax] + C[C@@H]1COCCN1C2=NC(=NC(=C2)C3(CC3)[S@](=N)(=O)C)C4=C5C=CNC5=NC=C4 [AZD6738] (first compound max 1 µM, 7x7, partner max 10 µM)",0.0287,-0.0055,-0.0219,-0.0191,-0.0698,-0.0713,0.0383,0.0434,-0.0286,0.0142,-0.0214,-0.0567,-0.035,-0.0188,-0.0336,-0.0132,-0.0093,-0.045,-0.0733,-0.0227
"CN(CCO)CC[C@H](CSc1ccccc1)Nc1ccc(S(=O)(=O)NC(=O)c2ccc(N3CCC([C@@H](O)c4ccccc4-c4ccc(Cl)cc4)CC3)cc2)cc1S(=O)(=O)C(F)(F)F [AZD4320] + C=CCn1c(=O)c2cnc(Nc3ccc(N4CCN(C)CC4)cc3)nc2n1-c1cccc(C(C)(C)O)n1 [AZD1775] (first compound max 1 µM, partner max 1 µM)",0.0798,0.0788,0.0033,-0.0023,-0.0018,-0.0106,0.0733,-0.0058,0.0409,0.0467,0.0007,-0.0219,-0.0525,0.0126,-0.0117,0.0539,0.0693,0.0069,-0.0444,-0.0417
"CC1(C)CCC(CN2CCN(c3ccc(C(=O)NS(=O)(=O)c4ccc(NCC5CCOCC5)c([N+](=O)[O-])c4)c(Oc4cnc5[nH]ccc5c4)c3)CC2)=C(c2ccc(Cl)cc2)C1 [Venetoclax] + Cc1cc2ncnn2cc1Nc1ncc2c(n1)n(C1CCOCC1)c(=O)n2C [AZD7648] (first compound max 1 µM, 7x7, partner max 10 µM)",-0.0405,-0.0174,-0.0088,-0.0192,-0.0345,-0.0272,-0.0374,-0.0125,0.0109,0.0285,-0.0362,0.0418,-0.0245,-0.0281,0.056,-0.0147,-0.0308,-0.0528,0.0114,-0.0358
"Cc1c2c(nn1C)CSCc1cc(n(C)n1)CSc1cc(c3ccccc3c1)OCCCc1c(C(=O)O)n(C)c3c-2c(Cl)ccc13 [AZD5991] + C[C@@H](Nc1cc(F)cc(F)c1)c1cc(C(=O)N(C)C)cc2c(=O)cc(N3CCOCC3)oc12 [AZD8186] (first compound max 1 µM, 7x7, partner max 3 µM)",-0.0011,-0.0554,-0.0043,-0.0348,0.0181,-0.0626,-0.0091,-0.0454,0.0265,-0.0219,0.0109,-0.0218,0.0051,0.027,0.0034,-0.0082,-0.0134,-0.0316,-0.0474,-0.0351
"COc1cccc2c1C(=O)c1c(O)c3c(c(O)c1C2=O)C[C@@](O)(C(=O)CO)C[C@@H]3O[C@H]1C[C@H](N)[C@H](O)[C@H](C)O1 [Doxorubicin] + Cc1cc2ncnn2cc1Nc1ncc2c(n1)n(C1CCOCC1)c(=O)n2C [AZD7648] (first compound max 1 µM, 7x7, partner max 10 µM)",0.0715,0.0256,0.0859,0.016,0.0465,0.0506,0.153,0.0759,0.0318,0.124,0.111,0.126,0.0175,0.0494,0.0822,0.0791,0.0291,0.0213,0.0158,-0.0405
"CC(=O)Nc1cccc(-n2c(=O)n(C3CC3)c(=O)c3c(Nc4ccc(I)cc4F)n(C)c(=O)c(C)c32)c1 [Trametinib] + Cc1nc(-c2cn3c(n2)-c2ccc(-c4cnn(C(C)(C)C(N)=O)c4)cc2OCC3)n(C(C)C)n1 [Taselisib] (first compound max 1 µM, 7x7, partner max 10 µM)",-0.0486,0.111,0.142,0.196,0.115,0.0312,0.539,0.0265,0.245,0.25,0.0452,0.0401,-0.0138,0.176,-0.0601,0.0078,0.0533,0.0182,0.0256,0.0777
